Patent US5900231A, “Silicone-containing derivatives of salicylic acid which have desquamating properties” (L'Oreal, priority 1996, dated 1999)

Tests used:
[1] = solubility in MIGLYOL 812 (mixture of caprylic acid and capric acid triglyceride); format: physicochemical
Description: The solubility of the silicon-containing derivatives of salicylic acid according to the invention in organic media was evaluated by comparing the solubility of 5-n-octanoylsalicylic acid with inventive compounds:
in a mixture of caprylic acid and capric acid triglyceride, marketed under the name MIGLYOL 812 by the company Huls.

[2] = system: keratinocytes; assay: in vitro test of the efficacy of the desquamation on keratinocytes (release of corneocytes, flow cytometry); format: cell-based; details: for cell detachment index (difference between T60 and T0; release of corneocytes relative to control): 60 minutes after addition, relative to control without test product, equal concentrations; for desquamating activity compared with 5-n-octanoylsalicylic acid: at a concentration equal to that of 5-n-octanoylsalicylic acid
Description: An in vitro test of the efficacy of the desquamation was carried out on keratinocytes using 5-n-octanoylsalicylic acid (compound C1), 2-hydroxy4-(3-trimethylsilanylpropyloxy)benzoic acid (compound C2) and 2-hydroxy-5-(3-trimethylsilanylpropyloxy)benzoic acid (compound C3). C1 is a known powerful desquamating active agent, but not part of the present invention. C2 and C3 are compounds of the present invention.
The principle of the test rests on the fact that desquamation is known to induce the release of corneocytes. The desquamating power of the test product should be proportionately greater the larger the number of corneocytes released.
The test procedure was as follows: keratinocytes were obtained by separating the epidermis from skin biopsies, and these keratinocytes were dissociated by enzymatic action with trypsin and cultured at a concentration of 2×10^5 cells/ml. Growth and differentiation of the keratinocytes were obtained by culturing for 10 to 20 days in specific medium.
Next, after removing the culture medium, the test product was added and the activity of the product evaluated. To do this, two samples were taken at T0 and T60, i.e., before addition of the product and 60 minutes after this addition, and the samples thus taken were analysed on a flow cytometer to count the population of corneocytes.
The cell detachment index was determined by the difference between T60 and T0.
The same measurement was taken for a control containing no test product since the experiment inevitably produces the release of corneocytes, even in the absence of active agent. The variation of the control arbitrarily set the standard at 100%.

Compound | Solubility at room temperature [1] | cell detachment index (difference between T60 and T0; release of corneocytes relative to control) [2] | desquamating activity compared with 5-n-octanoylsalicylic acid [2]
CCCCCCCC(=O)c1ccc(O)c(C(=O)O)c1 [Compound C1, 5-n-octanoylsalicylic acid, reference compound] | < 1.5% | 103% | 
C[Si](C)(C)CCCOc1ccc(C(=O)O)c(O)c1 [Compound C2, 2-hydroxy-4-(3-trimethylsilanylpropyloxy)benzoic acid] | 2% | 157% | much more active than the latter
C[Si](C)(C)CCCOc1ccc(O)c(C(=O)O)c1 [Compound C3, 2-hydroxy-5-(3-trimethylsilanylpropyloxy)benzoic acid] | 7% | 135% | much more active than the latter
CC(COc1ccc(C(=O)O)c(O)c1)C[Si](C)(O[Si](C)(C)C)O[Si](C)(C)C (stereo not shown) [Compound C4, 2-hydroxy-4-[2-methyl-3-[1,3,3,3-tetramethyl-1-[(trimethyl-silyl)oxy]disiloxanyl]propyloxy]benzoic acid] | 6% |  | 
CC(Cc1cccc(C(=O)O)c1O)C[Si](C)(O[Si](C)(C)C)O[Si](C)(C)C (stereo not shown) [Compound C5, 2-hydroxy-3-[2-methyl-3-[1,3,3,3-tetramethyl-1-[(trimethylsilyl)oxy]disiloxanyl]propyl]benzoic acid] | > 20% |  | 
